#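 96-well plates; 48 h exposure; 5 concentrations. Endpoints by linear interpolation between flanking doses. Not reached: highest tested concentration assigned. At the GI50, growth is halved. Definition used: TGI = concentration required for complete inhibition of growth.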
# Tests used:
# Assay in all cases: NCI-60 cell line screen, 48 h
# [1] = system: NCI/ADR-RES ovarian
# [2] = system: MDA-N
# [3] = system: SW-620 colon
# [4] = system: A498 renal
# [5] = system: NCI-H226 lung
# [6] = system: TK-10 renal
# [7] = system: IGROV1 ovarian
# [8] = system: SK-MEL-5 melanoma
# [9] = system: EKVX NSCLC
# [10] = system: HOP-92 NSCLC
# [11] = system: NCI-H522 lung
# [12] = system: HCT-15 colon
# [13] = system: U251 CNS
# [14] = system: MCF7 breast
# [15] = system: CCRF-CEM leukemia
# [16] = system: MDA-MB-231 breast
# [17] = system: SNB-19 CNS
# [18] = system: OVCAR-8 ovarian
# [19] = system: NCI-H23 lung
# [20] = system: SF-295 CNS
# [21] = system: NCI-H460 lung
# [22] = system: CAKI-1 renal
# [23] = system: HOP-62 NSCLC
# [24] = system: KM12 colon
# [25] = system: LOX IMVI melanoma
# [26] = system: RXF 393 renal
# [27] = system: OVCAR-5 ovarian
# [28] = system: SN12C renal
# [29] = system: SK-MEL-2 melanoma
# [30] = system: UO-31 renal
# [31] = system: BT-549 breast
# [32] = system: 786-0 renal
# [33] = system: UACC-257 melanoma
# [34] = system: SF-268 CNS
# [35] = system: SR leukemia
# [36] = system: COLO 205 colon
# [37] = system: HT29 colon
# [38] = system: MALME-3M melanoma
# [39] = system: HL-60(TB) leukemia
# [40] = system: ACHN renal
# [41] = system: SNB-75 CNS
# [42] = system: PC-3 prostate
# [43] = system: K-562 leukemia
# [44] = system: MDA-MB-435
# [45] = system: OVCAR-4 ovarian
# [46] = system: A549 NSCLC
# [47] = system: T-47D breast
# [48] = system: MOLT-4 leukemia
# [49] = system: SK-MEL-28 melanoma
# [50] = system: OVCAR-3 ovarian
# [51] = system: DU-145 prostate
# [52] = system: HCC-2998 colon
# [53] = system: HCT-116 colon
# [54] = system: UACC-62 melanoma
# [55] = system: SK-OV-3 ovarian
# [56] = system: M14 melanoma
# [57] = system: RPMI-8226 leukemia
# [58] = system: HS 578T breast
# [59] = system: SF-539 CNS
compound,measurement,setting,value
C=CCOc1ccc(C2C(C(=O)OC)C(=O)CC(O)(c3ccccc3)C2C(=O)OC)cc1OC (stereo not drawn),TGI,[1],66 µM
same,TGI,[2],> 100 µM
same,TGI,[3],> 100 µM
same,TGI,[4],76.4 µM
same,TGI,[5],60.3 µM
same,TGI,[6],> 100 µM
same,TGI,[7],> 100 µM
same,TGI,[8],> 100 µM
same,TGI,[9],> 100 µM
same,TGI,[10],38.5 µM
same,TGI,[11],50.5 µM
same,TGI,[12],> 100 µM
same,TGI,[13],> 100 µM
same,TGI,[14],61.3 µM
same,TGI,[15],> 100 µM
same,TGI,[16],38.2 µM
same,TGI,[17],> 100 µM
same,TGI,[18],50.4 µM
same,TGI,[19],> 100 µM
same,TGI,[20],> 100 µM
same,TGI,[21],> 100 µM
same,TGI,[22],> 100 µM
same,TGI,[23],> 100 µM
same,TGI,[24],> 100 µM
same,TGI,[25],> 100 µM
same,TGI,[26],37.2 µM
same,TGI,[27],> 100 µM
same,TGI,[28],> 100 µM
same,TGI,[29],> 100 µM
same,TGI,[30],61.8 µM
same,TGI,[31],> 100 µM
same,TGI,[32],39 µM
same,TGI,[33],> 100 µM
same,TGI,[34],52.7 µM
same,TGI,[35],> 100 µM
same,TGI,[36],> 100 µM
same,TGI,[37],> 100 µM
same,TGI,[38],> 100 µM
same,TGI,[39],> 100 µM
same,TGI,[40],> 100 µM
same,TGI,[41],98.3 µM
same,TGI,[42],> 100 µM
same,TGI,[43],> 100 µM
same,TGI,[44],> 100 µM
same,TGI,[45],69.5 µM
same,TGI,[46],> 100 µM
same,TGI,[47],46.9 µM
same,TGI,[48],> 100 µM
same,TGI,[49],> 100 µM
same,TGI,[50],> 100 µM
same,TGI,[51],> 100 µM
same,TGI,[52],> 100 µM
same,TGI,[53],49.8 µM
same,TGI,[54],> 100 µM
CCC1C(c2ccccc2O)c2cc3c(cc2OC1N1CCOCC1)OCO3 (stereo not drawn),TGI,[2],28.6 µM
same,TGI,[3],33 µM
same,TGI,[55],39.6 µM
same,TGI,[4],27.5 µM
same,TGI,[5],36.3 µM
same,TGI,[6],28 µM
same,TGI,[7],32.3 µM
same,TGI,[8],30.5 µM
same,TGI,[9],25.4 µM
same,TGI,[10],27.6 µM
same,TGI,[11],28 µM
same,TGI,[12],21.4 µM
same,TGI,[13],26.4 µM
same,TGI,[14],28.2 µM
same,TGI,[56],30.6 µM
same,TGI,[15],32.7 µM
same,TGI,[16],33.5 µM
same,TGI,[17],28.6 µM
same,TGI,[18],46.2 µM
same,TGI,[19],34.5 µM
same,TGI,[20],28.6 µM
same,TGI,[21],29.7 µM
same,TGI,[22],34.1 µM
same,TGI,[23],28.8 µM
same,TGI,[24],27.7 µM
same,TGI,[57],43.8 µM
same,TGI,[25],30.2 µM
same,TGI,[26],28.9 µM
same,TGI,[27],28.7 µM
same,TGI,[28],29.4 µM
same,TGI,[29],30.8 µM
same,TGI,[30],27 µM
same,TGI,[31],29.3 µM
same,TGI,[32],43.9 µM
same,TGI,[33],31.6 µM
same,TGI,[34],31.8 µM
same,TGI,[35],30.8 µM
same,TGI,[36],30.9 µM
same,TGI,[37],26.4 µM
same,TGI,[38],26 µM
same,TGI,[39],38.8 µM
same,TGI,[58],39.6 µM
same,TGI,[40],26 µM
same,TGI,[41],22.7 µM
same,TGI,[42],26 µM
same,TGI,[43],31.5 µM
same,TGI,[44],28.9 µM
same,TGI,[59],30.7 µM
same,TGI,[46],29.9 µM
same,TGI,[47],28.8 µM
same,TGI,[48],27 µM
same,TGI,[49],33.9 µM
same,TGI,[50],25.4 µM
same,TGI,[51],28 µM
same,TGI,[52],31 µM
same,TGI,[53],26.5 µM
same,TGI,[54],27.1 µM
COc1cc(O)c2c(=O)c(OC)c(-c3ccc(OC)c(OC)c3)oc2c1,GI50,[1],62.7 µM
same,TGI,[1],> 100 µM
same,TGI,[2],> 100 µM
same,TGI,[3],> 100 µM
same,TGI,[55],> 100 µM
same,TGI,[4],> 100 µM
same,TGI,[6],> 100 µM
same,GI50,[7],> 100 µM
same,TGI,[7],> 100 µM
same,GI50,[8],82 µM
same,TGI,[8],> 100 µM
same,GI50,[9],> 100 µM
same,TGI,[9],> 100 µM
same,TGI,[11],15 µM
same,TGI,[12],> 100 µM
same,TGI,[13],> 100 µM
same,GI50,[14],45.8 µM
same,TGI,[14],> 100 µM
same,GI50,[56],> 100 µM
same,TGI,[56],> 100 µM
same,TGI,[15],> 100 µM
same,GI50,[16],> 100 µM
same,TGI,[16],> 100 µM
same,GI50,[17],> 100 µM
same,TGI,[17],> 100 µM
same,GI50,[18],> 100 µM
same,TGI,[18],> 100 µM
same,GI50,[20],> 100 µM
same,TGI,[20],> 100 µM
same,TGI,[21],> 100 µM
same,TGI,[22],57.1 µM
same,GI50,[23],58.5 µM
same,TGI,[23],> 100 µM
same,TGI,[57],> 100 µM
same,GI50,[25],> 100 µM
same,TGI,[25],> 100 µM
same,GI50,[27],23 µM
same,TGI,[27],> 100 µM
same,TGI,[30],> 100 µM
same,TGI,[33],> 100 µM
same,GI50,[34],> 100 µM
same,TGI,[34],> 100 µM
same,TGI,[36],> 100 µM
same,GI50,[37],> 100 µM
same,TGI,[37],> 100 µM
same,GI50,[38],> 100 µM
same,TGI,[38],> 100 µM
same,TGI,[39],> 100 µM
same,GI50,[40],> 100 µM
same,TGI,[40],> 100 µM
same,GI50,[42],> 100 µM
same,TGI,[42],> 100 µM
same,GI50,[43],> 100 µM
same,TGI,[43],> 100 µM
same,TGI,[44],> 100 µM
same,GI50,[45],61.8 µM
same,TGI,[45],> 100 µM
same,TGI,[46],> 100 µM
same,GI50,[47],31.1 µM
same,TGI,[47],> 100 µM
same,GI50,[49],18 µM
same,TGI,[49],51.6 µM
same,GI50,[50],> 100 µM
same,TGI,[50],> 100 µM
same,GI50,[51],> 100 µM
same,TGI,[51],> 100 µM
same,GI50,[52],94.4 µM
same,TGI,[52],> 100 µM
same,GI50,[53],68.7 µM
same,TGI,[53],> 100 µM
same,GI50,[54],> 100 µM
same,TGI,[54],> 100 µM
